# Results as given in patent US20250084084A1, “Crystalline form of (2R)-2-(5-fluoro-2-methoxypyridin-4-yl)-1-[(2S)-7-methyl-6-(pyrimidin-2-yl)-3,4-dihydro-1H-spiro[1,8-naphthyridine-2,3-pyrrolidin]-1-yl]propan-1-one” (Pfizer Inc., priority 2020, published 2025).
# Read-outs that look alike come from different tables or passages of the source.
# Target: α-melanocyte-stimulating hormone receptor (hMC4R) (Homo sapiens (Human), UniProt P32245)
# Assay: In vitro binding affinity assay using hMC4R (radioligand competition binding, [125I]-(Nle4, D-Phe7)-α-MSH)
# Conditions: geometric mean
# Experimental: The binding affinity of test compounds at the α-melanocyte-stimulating hormone receptor (hMC4R) was assessed using a radioligand competition binding assay. Recombinant Chinese hamster ovaries (CHO) cells stably expressing hMC4R (PerkinElmer #ES-191-C) were used for competitive binding. hMC4R membranes were grown in Dulbecco's Modified Essential Medium and Ham's F-12 Medium (DMEM/F12), 10% heat inactivated fetal bovine serum (FBS), 0.4 mg/mL Geneticin and 2 mM L-glutamine. Cell membranes were bulked and frozen until the assay was performed.
# Compounds were solubilized in 100% dimethyl sulfoxide (DMSO) to a concentration of 30 mM. A 10-point intermediate dilution series using half log dilutions was created in 100% DMSO with a top concentration of 0.03 mM. The serially diluted compounds were spotted as 1 μL/well, in 96-well Costar 3363 plates. The final compound range in the assay was 300 nM to 0.01 nM with a final DMSO concentration of 1%. Control wells, containing 1 μL of 2 mM ([…]) alpha-melanocyte stimulating hormone (α-MSH-Tocris #2584) was added to the non-specific binding wells and 1 μL 100% DMSO for the total binding control wells. […] The exact concentration of radioligand used for each experiment was determined by liquid scintillation counting and adjusted if necessary.
# Frozen hMC4R cell membranes were thawed and Dounce homogenized. Homogenates were resuspended in assay buffer to a concentration of 2 μg per well. […] The plates were incubated for 2 hours at room temperature. Assay samples were then rapidly filtered through Unifilter-96 GF/B PEI coated filter plates using a filter plate harvester (PerkinElmer) and rinsed with ice-cold wash buffer [25 mM (4-(2-hydroxyethyl)-1-piperazineethanesulfonic acid (HEPES), 1 mM MgCl2, 2.5 mM CaCl2, and 500 mM NaCl]. Filter plates were dried overnight at room temperature. Plates were then bottom-sealed prior to the addition of 50 μL/well Ultima Gold XR scintillation fluid (PerkinElmer 6013111). Plates were then top-sealed, incubated for 60 minutes at room temperature and then the amount of radioactivity present was determined by liquid scintillation counting on a Microbeta Trilux (PerkinElmer #2450-0060).
# The raw data (expressed as counts per minute) were analyzed using ActivityBase (IDBS Data Management Software). […] Equilibrium dissociation constant for inhibitor of ligand and receptor interaction (Ki) values were then calculated from the IC50 values using the Cheng-Prusoff equation: Ki=IC50/(1+([L]/Kd)), where [L] is the concentration of the radioligand used in the experiment and Kd is the affinity of the radioligand (determined in separate saturation experiments).
# [1] = read-out: Ki (nM) geometric mean
# Sequence of α-melanocyte-stimulating hormone receptor (hMC4R) (P32245 whole entry): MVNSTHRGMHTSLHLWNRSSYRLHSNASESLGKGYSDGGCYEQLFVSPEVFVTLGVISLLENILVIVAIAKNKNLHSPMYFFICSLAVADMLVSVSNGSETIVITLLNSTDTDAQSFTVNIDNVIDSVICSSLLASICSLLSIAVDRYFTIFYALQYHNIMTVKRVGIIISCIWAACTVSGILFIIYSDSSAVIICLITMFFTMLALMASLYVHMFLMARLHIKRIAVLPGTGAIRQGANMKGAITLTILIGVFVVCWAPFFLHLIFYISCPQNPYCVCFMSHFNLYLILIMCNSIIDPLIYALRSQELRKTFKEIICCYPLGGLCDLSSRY
Compound,Ki [1] [nM],Ki (read-out: Ki (nM) geometric) [nM]
"COc1cc([C@@H](C)C(=O)N2CC[C@@]3(CCc4cc(-c5ncc(Br)cn5)c(C)nc4N3)C2)c(F)cn1 [Example 22, (2R)-1-[(2S)-6-(5-bromopyrimidin-2-yl)-7-methyl-3,4-dihydro-1H-spiro[1,8-naphthyridine-2,3′-pyrrolidin]-1′-yl]-2-(5-fluoro-2-methoxypyridin-4-yl)propan-1-one]",2,
"COc1cc([C@@H](C)C(=O)N2CC[C@@]3(CCc4cc(-c5cc(C(F)(F)F)ncn5)c(C)nc4N3)C2)c(F)cn1 [Example 72, (2R)-2-(5-fluoro-2-methoxypyridin-4-yl)-1-{(2S)-7-methyl-6-[6-(trifluoromethyl)pyrimidin-4-yl]-3,4-dihydro-1H-spiro[1,8-naphthyridine-2,3′-pyrrolidin]-1′-yl}propan-1-one]",3.3,
"COc1cc([C@](C)(F)C(=O)N2CC[C@@]3(CCc4cc(-c5ncccn5)c(C)nc4N3)C2)ccn1 (single isomer, unassigned) [Example 46]",3.5,
"Cc1nc2c(cc1-c1nnn(C)n1)CC[C@@]1(CCN(C(=O)C(C)c3ccc(C(F)(F)F)cc3)C1)N2 (single isomer, unassigned) [Example 109]",,0.73
"COc1cc([C@@H](C)C(=O)N2CC[C@@]3(CCc4cc(-c5cccc(-c6cnco6)c5)c(C)nc4N3)C2)c(F)cn1 [Example 173, (2R)-2-(5-fluoro-2-methoxypyridin-4-yl)-1-{(2S)-7-methyl-6-[3-(1,3-oxazol-5-yl)phenyl]-3,4-dihydro-1H-spiro[1,8-naphthyridine-2,3′-pyrrolidin]-1′-yl}propan-1-one]",,85
"[2H]C([2H])([2H])Oc1cc([C@@H](C)C(=O)N2CC[C@@]3(CCc4cc(-c5ncccn5)c(C)nc4N3)C2)c(F)cn1 [Example 74, (2R)-2-{5-fluoro-2-[(^2H3)methyloxy]pyridin-4-yl}-1-[(2S)-7-methyl-6-(pyrimidin-2-yl)-3,4-dihydro-1H-spiro[1,8-naphthyridine-2,3′-pyrrolidin]-1′-yl]propan-1-one]",1.3,
"Cc1ccc2c(n1)N[C@@]1(CC2)CCN(C(=O)Cc2ccc(F)cc2)C1 (single isomer, unassigned) [Example 88, 2-(4-fluorophenyl)-1-(7-methyl-3,4-dihydro-1H-spiro[1,8-naphthyridine-2,3′-pyrrolidin]-1′-yl)ethan-1-one]",> 2200,
"COc1cc([C@@H](C)C(=O)N2CC[C@@]3(CCc4cc(-c5nc(C)n(C(F)F)n5)c(C)nc4N3)C2)c(F)cn1 [Example 188, (2R)-1-{(2S)-6-[1-(difluoromethyl)-5-methyl-1H-1,2,4-triazol-3-yl]-7-methyl-3,4-dihydro-1H-spiro[1,8-naphthyridine-2,3′-pyrrolidin]-1′-yl}-2-(5-fluoro-2-methoxypyridin-4-yl)propan-1-one]",,0.41
"COc1cc([C@@H](C)C(=O)N2CC[C@@]3(CCc4cc(-c5cn(C(F)F)c(C)n5)c(C)nc4N3)C2)c(F)cn1 [Example 138, (2R)-1-{(2S)-6-[1-(difluoromethyl)-2-methyl-1H-imidazol-4-yl]-7-methyl-3,4-dihydro-1H-spiro[1,8-naphthyridine-2,3′-pyrrolidin]-1′-yl}-2-(5-fluoro-2-methoxypyridin-4-yl)propan-1-one]",,0.9
"COc1cc([C@@H](C)C(=O)N2CC[C@@]3(CCc4ccc(C)nc4N3)C2)c(Cl)cn1 (single isomer, unassigned) [Example 100]",1.1,
"COc1cc([C@@H](C)C(=O)N2CC[C@@]3(CCc4cc(-c5ncc(C(F)(F)F)cn5)c(C)nc4N3)C2)c(F)cn1 [Example 145, (2R)-2-(5-fluoro-2-methoxypyridin-4-yl)-1-{(2S)-7-methyl-6-[5-(trifluoromethyl)pyrimidin-2-yl]-3,4-dihydro-1H-spiro[1,8-naphthyridine-2,3′-pyrrolidin]-1′-yl}propan-1-one]",,8.7
"COc1cc([C@@H](C)C(=O)N2CC[C@@]3(CCc4cc(-c5cnn(C)c5)c(C)nc4N3)C2)c(Cl)cn1 (single isomer, unassigned) [Example 104]",,0.48
"COc1cc([C@@H](C)C(=O)N2CC[C@@]3(CCc4cc(-c5ccccn5)c(C)nc4N3)C2)c(F)cn1 [Example 140, (2R)-2-(5-fluoro-2-methoxypyridin-4-yl)-1-[(2S)-7-methyl-6-(pyridin-2-yl)-3,4-dihydro-1H-spiro[1,8-naphthyridine-2,3′-pyrrolidin]-1′-yl]propan-1-one]",,6.3
"COc1cc([C@@H](C)C(=O)N2CC[C@@]3(CCc4cc(-c5cnn6cccnc56)c(C)nc4N3)C2)c(F)cn1 [Example 154, (2R)-2-(5-fluoro-2-methoxypyridin-4-yl)-1-[(2S)-7-methyl-6-(pyrazolo[1,5-a]pyrimidin-3-yl)-3,4-dihydro-1H-spiro[1,8-naphthyridine-2,3′-pyrrolidin]-1′-yl]propan-1-one]",,0.72
"COc1cc([C@@H](C)C(=O)N2CC[C@@]3(CCc4cc(-c5ccc(C(F)F)cn5)c(C)nc4N3)C2)c(F)cn1 [Example 179, (2R)-1-{(2S)-6-[5-(difluoromethyl)pyridin-2-yl]-7-methyl-3,4-dihydro-1H-spiro[1,8-naphthyridine-2,3′-pyrrolidin]-1′-yl}-2-(5-fluoro-2-methoxypyridin-4-yl)propan-1-one]",,21
"COc1cc([C@@H](C)C(=O)N2CC[C@@]3(CCc4cc(-c5nc(C)c(C)s5)c(C)nc4N3)C2)c(F)cn1 [Example 163, (2R)-1-[(2S)-6-(4,5-dimethyl-1,3-thiazol-2-yl)-7-methyl-3,4-dihydro-1H-spiro[1,8-naphthyridine-2,3′-pyrrolidin]-1′-yl]-2-(5-fluoro-2-methoxypyridin-4-yl)propan-1-one]",,2.8
"COc1cc([C@@H](C)C(=O)N2CC[C@@]3(CCc4cc(-c5cccc(C(F)(F)F)n5)c(C)nc4N3)C2)c(F)cn1 [Example 178, (2R)-2-(5-fluoro-2-methoxypyridin-4-yl)-1-{(2S)-7-methyl-6-[6-(trifluoromethyl)pyridin-2-yl]-3,4-dihydro-1H-spiro[1,8-naphthyridine-2,3′-pyrrolidin]-1′-yl}propan-1-one]",,4.7
"Cc1nc2c(cc1-c1nnn(C)n1)CC[C@@]1(CCN(C(=O)Cc3ccc(C(F)(F)F)cc3)C1)N2 (single isomer, unassigned) [Example 66, 1-[7-methyl-6-(2-methyl-2H-tetrazol-5-yl)-3,4-dihydro-1H-spiro[1,8-naphthyridine-2,3′-pyrrolidin]-1′-yl]-2-[4-(trifluoromethyl)phenyl]ethan-1-one]",250,
"COc1cc([C@@H](C)C(=O)N2CC[C@@]3(CCc4cc(-c5nccs5)c(C)nc4N3)C2)c(F)cn1 [Example 167, (2R)-2-(5-fluoro-2-methoxypyridin-4-yl)-1-[(2S)-7-methyl-6-(1,3-thiazol-2-yl)-3,4-dihydro-1H-spiro[1,8-naphthyridine-2,3′-pyrrolidin]-1′-yl]propan-1-one]",,5.4
"COc1cc([C@@H](C)C(=O)N2CC[C@@]3(CCc4cc(-c5ccc(OC(F)(F)F)cn5)c(C)nc4N3)C2)c(F)cn1 [Example 180, (2R)-2-(5-fluoro-2-methoxypyridin-4-yl)-1-{(2S)-7-methyl-6-[5-(trifluoromethoxy)pyridin-2-yl]-3,4-dihydro-1H-spiro[1,8-naphthyridine-2,3′-pyrrolidin]-1′-yl}propan-1-one]",,21
"COc1cc([C@@H](C)C(=O)N2CC[C@@]3(CCc4cc(-c5cnc(C)cn5)c(C)nc4N3)C2)c(F)cn1 [Example 158, (2R)-2-(5-fluoro-2-methoxypyridin-4-yl)-1-[(2S)-7-methyl-6-(5-methylpyrazin-2-yl)-3,4-dihydro-1H-spiro[1,8-naphthyridine-2,3′-pyrrolidin]-1′-yl]propan-1-one]",,3.2
"COc1ncc(F)c([C@@H](C)C(=O)N2CC[C@@]3(CCc4cc(-c5nnn(C)n5)c(C)nc4N3)C2)n1 (single isomer, unassigned) [Example 134]",,220
"COc1cc([C@@H](C)C(=O)N2CC[C@@]3(CCc4cc(-c5nnn(C)n5)c(C)nc4N3)C2)nc(C(F)F)n1 (single isomer, unassigned) [Example 127]",,0.97
"COc1cc([C@@H](C)C(=O)N2CC[C@@]3(CCc4cc(-c5nccc(C(F)F)n5)c(C)nc4N3)C2)c(F)cn1 [Example 200, (2R)-1-{(2S)-6-[4-(difluoromethyl)pyrimidin-2-yl]-7-methyl-3,4-dihydro-1H-spiro[1,8-naphthyridine-2,3′-pyrrolidin]-1′-yl}-2-(5-fluoro-2-methoxypyridin-4-yl)propan-1-one]",,0.82
